# Laboratory results: patent US6495699B2, “Metalloproteinase inhibitors, pharmaceutical compositions containing them, and their use” (Agouron Pharmaceuticals Inc., priority 1996, dated 2002)
# Structures can show the parent of a compound that is named as a salt.
# Assays:
# [1] = target: T1, catalytic domain of human stromelysin (Hsln) (Homo sapiens, UniProt P08254); experiment: Fluorometric MCA-peptide hydrolysis assay, stromelysin (Hsln); type: biochemical; conditions: apparent Ki; 10 μM MCA peptide substrate, 37° C., pH 7.5; read-out: Hsln (Ki,app)
# T1 construct: The catalytic domain of human stromelysin (Hsln) was obtained by expression and purification of a C-terminally truncated prostromelysin-1; made in house; host or cells: E. coli BL21
# T1 sequence (P08254 100-272 limits assumed): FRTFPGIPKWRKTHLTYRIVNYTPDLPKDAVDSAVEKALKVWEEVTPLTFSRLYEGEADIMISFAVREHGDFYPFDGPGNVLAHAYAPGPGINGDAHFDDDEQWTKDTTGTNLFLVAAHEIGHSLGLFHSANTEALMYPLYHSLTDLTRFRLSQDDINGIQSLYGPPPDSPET
# Description: The catalytic domain of human stromelysin (Hsln) was obtained by expression and purification of a C-terminally truncated prostromelysin-1 from E. coli host BL21 (see Marcy et al. Biochem., 1991, 30, 6476). The subsequent activation of the mature form (Hsln) was completed with 2 mM APMA for 1 hour at 37° C., followed by separation using a sizing column.
# (§1) Assays were performed in assay buffer (50 mM Tricine pH 7.5, 200 mM sodium chloride, 10 mM calcium chloride, 0.5 mM zinc acetate containing 2% dimethyl sulfoxide (DMSO)) once the substrate and inhibitor were diluted into it. Stock solutions of inhibitors were prepared in 100% DMSO. Stock solutions of the substrate were prepared in 100% DMSO at a concentration of 6 mM.
# (§2) The assay method was based on the hydrolysis of MCA-Pro-Leu-Gly-Leu-DPA-Ala-Arg-NH2 (American Peptide Co.) at 37° C. (see Knight, C. G. et al., FEBS, 1992, 296, 263-266). The fluorescence changes were monitored with a Perkin-Elmer LS-50B fluorimeter using an excitation wavelength of 328 nm and an emission wavelength of 393 nm. The substrate concentration used in the assays was 10 μM. The inhibitor was diluted into the assays from a solution in 100% DMSO, and controls substituted an equal volume of DMSO so that the final DMSO concentration from inhibitor and substrate dilution in all assays was 2%. […] Proper determination of steady-state rates of substrate cleavage required assay lengths of 60 minutes to allow for complete equilibration of the enzyme-inhibitor complex.
# (§3) The Km for the MCA peptide substrate with the matrix metalloproteinases is quite high and exceeds its solubility under assay conditions. Consequently, the apparent Ki (Ki,app) was determined to describe the strength of inhibition. However, in this case, Ki,app would be essentially equal to Ki since [S]<<Km. For the determination of Ki,app, the concentration of the inhibitor was varied at a constant and low concentration of substrate and the steady-state rates of fluorescence change determined. In most cases absorptive quench due to the presence of ligand was not observed. For slow-binding inhibitors, onset of inhibition curves were collected for at least 45 minutes so that equilibrium was established. Steady-state rates of fluorescence change were obtained by fitting a curve to an equation for a single exponential decay containing a linear phase. The fitted value of the linear phase was taken as the steady-state rate. The steady-state rates were fitted to the Michaelis equation describing competitive inhibition by non-linear methods. Data resulting from tight-binding inhibition was analyzed, and Ki,app determined by fitting the data to the tight-binding equation of Morrison (Biochem. Biophys. Acta, vol. 185, pp. 269-286 (1969)) by non-linear methods.
# [2] = target: T2, fibroblast collagenase-1 catalytic domain (HFC) (Homo sapiens, UniProt P03956); experiment: Fluorometric MCA-peptide hydrolysis assay, fibroblast collagenase-1 (HFC); type: biochemical; conditions: apparent Ki; 10 μM MCA peptide substrate, 37° C., pH 7.5; read-out: HFC (Ki,app)
# T2 construct: The catalytic domain of human collagenase-1 was expressed as a fusion protein with ubiquitin in E. coli; ubiquitin (cleaved yes); made in house; host or cells: E. coli
# T2 sequence (P03956 100-269 limits assumed): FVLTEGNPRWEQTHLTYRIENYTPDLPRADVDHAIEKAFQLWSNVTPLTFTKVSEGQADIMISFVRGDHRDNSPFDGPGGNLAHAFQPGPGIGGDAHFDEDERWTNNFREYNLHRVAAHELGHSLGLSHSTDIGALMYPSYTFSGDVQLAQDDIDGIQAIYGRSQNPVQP
# Description: The catalytic domain of human collagenase-1 was expressed as a fusion protein with ubiquitin in E. coli (see Gehring, E. R., J Biol. Chem., 1995, 270, 22507). After purification of the fusion protein, the fibroblast collagenase-1 catalytic domain (HFC) was released either by treatment with purified, active stromelysin-1 (1:50 w/w ratio), which generated nearly 100% N-terminal Phe1, or by autoprocessing the concentrated collagenase-1 fusion and then incubating at 37° C. for 1 hour. Final purification was completed using zinc chelate chromatography.
# as §1, §2, §3
# [3] = target: T3, human collagenase-3 (Coll3) (Homo sapiens, UniProt P45452); experiment: Fluorometric MCA-peptide hydrolysis assay, collagenase-3 (Coll3); type: biochemical; conditions: apparent Ki; 10 μM MCA peptide substrate, 37° C., pH 7.5; read-out: Coll3 (Ki,app)
# T3 construct: the catalytic domain was liberated by treatment with 2 mM APMA at room temperature overnight; ubiquitin (N, cleaved yes); made in house; host or cells: E. coli
# Description: The propeptide and catalytic domain of human collagenase-3 (Coll3) was expressed in E. coli as an N-terminal fusion protein with ubiquitin. After purification of the fusion from inclusion bodies, the catalytic domain was liberated by treatment with 2 mM APMA at room temperature overnight. Final purification was completed using copper chelate chromatography.
# as §1, §2
# as §3, with “In most cases absorptive quench due to the presence of ligand was not observed.” left out
# [4] = target: T4, human progelatinase A (GelA), catalytic and fibronectin-like portion (Homo sapiens, UniProt P08253); experiment: Fluorometric MCA-peptide hydrolysis assay, gelatinase A (GelA); type: biochemical; conditions: apparent Ki; 10 μM MCA peptide substrate, 37° C., pH 7.5
# T4 construct: The catalytic and fibronectin-like portion of human progelatinase A (GelA) was expressed as a fusion protein with ubiquitin; ubiquitin; made in house; host or cells: E. coli
# T4 sequence (P08253 110-465 limits assumed): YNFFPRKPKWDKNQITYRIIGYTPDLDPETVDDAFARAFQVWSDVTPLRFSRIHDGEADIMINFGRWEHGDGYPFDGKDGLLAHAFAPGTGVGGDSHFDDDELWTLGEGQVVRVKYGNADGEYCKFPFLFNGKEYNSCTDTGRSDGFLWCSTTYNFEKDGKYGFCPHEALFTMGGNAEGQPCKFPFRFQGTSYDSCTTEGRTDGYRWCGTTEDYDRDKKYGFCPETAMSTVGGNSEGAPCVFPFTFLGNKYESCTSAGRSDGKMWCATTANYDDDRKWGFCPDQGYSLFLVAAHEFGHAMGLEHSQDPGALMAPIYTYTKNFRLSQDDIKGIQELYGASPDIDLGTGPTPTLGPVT
# Description: The catalytic and fibronectin-like portion of human progelatinase A (GelA) was expressed as a fusion protein with ubiquitin in E. Coli. Assays were carried out on autocatalytically activated material.
# as §1, §2, §3
# Human matrilysin (Matr) = target: T5, Human matrilysin (Matr) (Homo sapiens, UniProt P09237); experiment: Fluorometric MCA-peptide hydrolysis assay, matrilysin (Matr); type: biochemical; conditions: apparent Ki; 10 μM MCA peptide substrate, 37° C., pH 7.5; read-out: Matr (Ki,app)
# T5 construct: the catalytic domain was liberated by treatment with 2 mM APMA at 37° C. for 2 hours; ubiquitin (cleaved yes); made in house; host or cells: E. coli
# T5 sequence (P09237 95-267): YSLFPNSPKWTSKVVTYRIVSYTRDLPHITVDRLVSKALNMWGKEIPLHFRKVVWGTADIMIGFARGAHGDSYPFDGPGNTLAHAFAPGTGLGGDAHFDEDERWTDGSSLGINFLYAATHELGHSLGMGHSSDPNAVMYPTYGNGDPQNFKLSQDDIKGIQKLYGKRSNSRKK
# Description: Human matrilysin (Matr) was expressed in E. coli as a fusion protein with ubiquitin. After purification of the matrilysin/ubiquitin fusion from inclusion bodies, the catalytic domain was liberated by treatment with 2 mM APMA at 37° C. for 2 hours. Final purification was complete using copper chelate chromatography.
# as §1, §2, §3
SMILES,Ki [1] [nM],Ki [2] [nM],Ki [3] [nM],melting point [°C],"GelA (Ki,app) [4] [nM]",Ki (Human matrilysin (Matr)) [nM]
O=C(CC(C(=O)N[C@H]1CCCCNC1=O)n1cnc(-c2ccc(-c3ccccc3)cc2)c1)NO (mixture of isomers) [Example 19(a)],31,57000,43,,,
CNC(=O)[C@@H](NC(=O)C(CC(=O)O)n1cnc(-c2ccc(-c3ccccc3)cc2)c1)C(C)(C)C (mixture of isomers) [Example 18(c)],180,24000,31,187 to 188.2,,
"CC(C)(C)[C@@H](CO)NC(=O)C(CC(=O)NO)n1cnc(-c2ccc(-c3ccccc3)cc2)c1 (mixture of isomers) [Example 19(b), 3(RS)-(3-Biphenyl-4-yl-1H-imidazol-1-yl)-N^4-(2,2-dimethyl-1(S)-hydroxymethylpropyl)-N^1-hydroxy-succindiamide]",17,66000,9.7,,,
CNC(=O)[C@@H](NC(=O)C(CC(=O)NO)n1cnc(-c2ccc(-c3ccccc3)cc2)c1)C(C)(C)C (mixture of isomers) [Example 19(e)],2.3,310,0.13,,,
"CNC(=O)[C@@H](NC(=O)[C@@H](CC(=O)O)n1ccc(-c2ccncc2)c1)C(C)(C)C [Example 1(d), N-[2,2-Dimethyl-1(S)-(methylcarbamoyl)propyl]-3(R)-[3-(pyridin-4-yl)-1H-pyrrol-1-yl]succinamic Acid]",1220,4500,24,145 to 148,3.9,
"O=C(O)C[C@H](C(=O)N[C@H]1Cc2cn(c3ccccc23)CCCCCCNC1=O)n1cccc1 [Example 1(o), N-(9-oxo-1,8-Diaza-tricyclo[10.6.1.0^13,18]nonadeca-12(19), 13,15,17-tetraen-10S-yl)-3(R)-1H-pyrrol-1-yl-succinamic Acid]",> 10000,51500,,139 to 144,,15000
"O=C(O)C[C@H](C(=O)N[C@H](CO)c1ccccc1)n1ccc(-c2ccc(-c3ccncc3)cc2)c1 [Example 5(b), N-(2-Hydroxy-1(S)-phenylethyl)-3(R)-[3-[4-(pyridin-4-yl)phenyl]-1H-pyrrol-1-yl]succinamic Acid]",30,> 12000,9.1,,1.04,5200
"CC(C)(C)[C@H](NC(=O)[C@@H](CC(=O)O)n1ccc(-c2ccc(-c3ccc(C#N)cc3)cc2)c1)C(=O)Nc1ccncc1 [Example 5(d), 3(R)-[3-(4′-Cyanobiphenyl-4-yl)-1H-pyrrol-1-yl]-N-[2,2-dimethyl-1(S)-(pyridin-4-ylcarbamoyl)propyl]succinamic Acid Formate Salt]",1.6,> 2000,0.23,,0.028,4.5
"O=C(O)C[C@H](C(=O)N[C@@H]1c2ccccc2C[C@H]1O)n1ccc(-c2ccc(-c3ccncc3)cc2)c1 [Example 6(a), N-(2(R)-Hydroxyindan-1(R)-yl)-3(R)-[3-[4-(pyridin-4-yl)phenyl]-1H-pyrrol-1-yl]succinamic Acid]",15,8860,15.6,,6.62,1500
"CCC[C@H](C(=O)O)[C@H](C(=O)N[C@H](CO)C(C)(C)C)n1ccc(-c2ccc(-c3ccc(C#N)cc3)cc2)c1 [Example 10(c), 2S-[1R-(3-(4′-Cyanobiphenyl-4-yl)-1H-pyrrol-1-yl)-1-(2,2-dimethyl-1(S)-(hydroxymethyl)propylcarbamoyl)-methyl]-pentanoic Acid]",40,,50,130 to 132,22,2180
"COC(=O)c1ccc(NC(=O)[C@H](CC(C)C)NC(=O)[C@@H](CC(=O)O)c2cccs2)cc1 [Example 17(a), 4-[2(S)-(2(R)-Carboxymethyl-2-(thien-2-yl)acetylamino]-4-methyl-valeroyl]-aminobenzoic Acid Methyl Ester]",965,32000,,197 to 200,,454
"CC(C)(C)[C@@H](CO)NC(=O)[C@@H](CC(=O)NO)n1cnc(-c2ccc(-c3ccccc3)cc2)c1 [Example 19(c), 3(R)-(3-Biphenyl-4-yl-1H-imidazol-1-yl)-N^4-(2,2-dimethyl-1(S)-hydroxymethylpropyl)-N^1-hydroxy-succindiamide]",17,45000,6.5,157.5 to 160,,
"CC(C)(C)[C@@H](CO)NC(=O)[C@H](CC(=O)NO)n1cnc(-c2ccc(-c3ccccc3)cc2)c1 [Example 19(d), 3(S)-(3-Biphenyl-4-yl-1H-imidazol-1-yl)-N^4-(2,2-dimethyl-1(S)-hydroxymethylpropyl)-N^1-hydroxy-succindiamide]",120,> 100000,43,134.5 to 136.5,,
